Results on 14 compounds are retold here after US20250296971A1, “GASTRIC INHIBITORY PEPTIDE RECEPTOR LIGANDS” (priority 2021, published 2025).

*1 amine or outer side, *2 acyl side, *3 side chain or, on linkers, in order; H or OH if unused. Where a SMILES comes first, the peptide text is derived from it. Bridges are numbered along the chain shown (N, C = ends). [ ]: non-standard residue; d: D form. The star is where a group is joined. X3 = O=C(O)CN1CCN(CC(=O)O)CCN(CC(=O)NCCCOCCOCCOCCCN*)CCN(CC(=O)O)CC1; Trp(5-Cl) = N[C@@H](Cc1c[nH]c2ccc(Cl)cc12)C(=O)O; Phe(3,4-Cl2) = N[C@@H](Cc1ccc(Cl)c(Cl)c1)C(=O)O; Pyridine(2,6-diCH2) = c1cc(C[*:1])nc(C[*:2])c1; Phe(2,4-Cl2) = N[C@@H](Cc1ccc(Cl)cc1Cl)C(=O)O; Oic = O=C(O)[C@@H]1C[C@@H]2CCCC[C@@H]2N1; Phe(4-Cl) = N[C@@H](Cc1ccc(Cl)cc1)C(=O)O; Phe(2-Cl) = N[C@@H](Cc1ccccc1Cl)C(=O)O; 1Nal = N[C@@H](Cc1cccc2ccccc12)C(=O)O; X23 = O=C(c1cccc(CSCCN[*:1])c1)[*:2]; mXylylene = c1cc(C[*:1])cc(C[*:2])c1; Hyp = O=C(O)[C@@H]1C[C@@H](O)CN1; Cit = NC(=O)NCCC[C@H](N)C(=O)O; Suc = O=C(CCC(=O)[*:2])[*:1]; Nle = CCCC[C@H](N)C(=O)O; Thp = NC1(C(=O)O)CCOCC1; Dap = NC[C@H](N)C(=O)O; Aib = CC(C)(N)C(=O)O; Sar = CNCC(=O)O

The target in the assay is T1, GIPR (CHO-K1-hGIPR cells) (Homo sapiens, UniProt P48546).
T1 construct: host or cells: CHO-K1
T1 sequence (P48546 22-466): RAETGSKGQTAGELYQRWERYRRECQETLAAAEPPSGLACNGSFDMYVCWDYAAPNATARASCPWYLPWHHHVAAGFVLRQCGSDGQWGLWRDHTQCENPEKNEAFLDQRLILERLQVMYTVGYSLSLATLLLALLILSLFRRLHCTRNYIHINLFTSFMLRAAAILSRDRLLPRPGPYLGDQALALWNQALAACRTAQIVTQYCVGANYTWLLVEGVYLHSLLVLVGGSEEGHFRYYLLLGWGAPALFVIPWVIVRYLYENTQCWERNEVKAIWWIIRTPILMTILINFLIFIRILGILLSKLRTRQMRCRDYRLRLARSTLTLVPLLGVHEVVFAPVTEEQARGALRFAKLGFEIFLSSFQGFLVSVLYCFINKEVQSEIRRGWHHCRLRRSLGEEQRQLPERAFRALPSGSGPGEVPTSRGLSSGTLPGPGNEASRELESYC
As to the kind of experiment: FACS binding assay. Conditions: competition with 20 nM GIP-057, 4° C. for 1 hour, read-out: pIC50 Category (converted). In short, it runs like this:
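CHO-K1 cells stably expressing human GIPR were detached with Accutase, suspended at 500.000 cells per mL in PBS with 1% FCS, and washed ice-cold. Bound peptide was detected with 1 μg/mL APC-streptavidin for 30 min on ice.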
For orientation: Flow cytometry measures light scatter and fluorescence of single cells or particles in a stream.

As to `CC[C@H](C)[C@@H]1NC(=O)[C@H](CC(C)C)NC(=O)C(C)(C)NC(=O)[C@@H](NC(=O)[C@H](CCCCN)NC(=O)[C@H](CCC(=O)O)NC(=O)[C@@H]2CCCN2C(=O)[C@H](Cc2cccc3ccccc23)NC(=O)[C@H](Cc2c[nH]c3ccccc23)NC(=O)[C@H](CC(=O)O)NC(C)=O)CSCc2cccc(c2)CSC[C@@H](C(N)=O)NC1=O` [GIP-345, Ac-Asp-Trp-1Ni-Pro-Glu-Lys-[Cys(3MeBn)-Aib-Leu-Ile-Cys]-NH2] (Ac-DW[1Nal]PEKC[Aib]LIC-NH2; linker 7-11 via mXylylene), the IC50 is over 1000 nM.

Regarding `CCCC[C@H](NC(=O)[C@H](CCC(=O)O)NC(=O)[C@@H]1CCCN1C(=O)[C@H](Cc1cccc2ccccc12)NC(=O)[C@H](Cc1c[nH]c2ccccc12)NC(=O)[C@H](CC(=O)O)NC(C)=O)C(=O)N[C@H]1CSCc2cccc(c2)CSC[C@@H](C(N)=O)NC(=O)[C@H]([C@@H](C)CC)NC(=O)[C@H](CC(C)C)NC(=O)C(C)(C)NC1=O` [GIP-346, Ac-Asp-Trp-1Ni-Pro-Glu-Nle-[Cys(3MeBn)-Aib-Leu-Ile-Cys]-NH2] (Ac-DW[1Nal]PE[Nle]C[Aib]LIC-NH2; linker 7-11 via mXylylene), the IC50 is over 1000 nM.

Regarding `CC[C@H](C)[C@@H]1NC(=O)[C@H](CC(C)C)NC(=O)C(C)(C)NC(=O)[C@@H](NC(=O)[C@H](CCCNC(N)=O)NC(=O)[C@H](CCC(=O)O)NC(=O)[C@@H]2CCCN2C(=O)[C@H](Cc2cccc3ccccc23)NC(=O)[C@H](Cc2c[nH]c3ccccc23)NC(=O)[C@H](CC(=O)O)NC(C)=O)CSCc2cccc(c2)CSC[C@@H](C(N)=O)NC1=O` [GIP-347, Ac-Asp-Trp-1Ni-Pro-Glu-Cit-[Cys(3MeBn)-Aib-Leu-Ile-Cys]-NH2] (Ac-DW[1Nal]PE[Cit]C[Aib]LIC-NH2; linker 7-11 via mXylylene), the IC50 was over 1000 nM.

For `CC[C@H](C)[C@@H]1NC(=O)[C@H](CC(C)C)NC(=O)C(C)(C)NC(=O)[C@@H](NC(=O)[C@H](CNC(C)=O)NC(=O)[C@H](CCC(=O)O)NC(=O)[C@@H]2CCCN2C(=O)[C@H](Cc2cccc3ccccc23)NC(=O)[C@H](Cc2c[nH]c3ccccc23)NC(=O)[C@H](CC(=O)O)NC(C)=O)CSCc2cccc(c2)CSC[C@@H](C(N)=O)NC1=O` [GIP-348, Ac-Asp-Trp-1Ni-Pro-Glu-Dap(Ac)-[Cys(3MeBn)-Aib-Leu-Ile-Cys]-NH2] (Ac-DW[1Nal]PE[Dap](Ac)C[Aib]LIC-NH2; linker 7-11 via mXylylene), the IC50 was over 1000 nM.

For `CC[C@H](C)[C@@H]1NC(=O)[C@H](CC(C)C)NC(=O)C2(CCOCC2)NC(=O)[C@@H](NC(=O)[C@@H](CC(C)C)NC(=O)[C@H](CCC(=O)O)NC(=O)[C@@H]2C[C@@H](O)CN2C(=O)[C@H](Cc2ccccc2Cl)NC(=O)[C@H](Cc2c[nH]c3ccccc23)NC(=O)[C@H](CC(=O)O)NC(C)=O)CSCc2cccc(n2)CSC[C@@H](C(N)=O)NC1=O` [GIP-349, Ac-Asp-Trp-Ocf-Hyp-Glu-leu-[Cys(2Lut)-Thp-Leu-Ile-Cys]-NH2] (Ac-DW[Phe(2-Cl)][Hyp]E[dL]C[Thp]LIC-NH2; linker 7-11 via Pyridine(2,6-diCH2)), the IC50 is over 1000 nM.

For the compound `CC[C@H](C)[C@@H]1NC(=O)[C@H](CC(C)C)NC(=O)C2(CCOCC2)NC(=O)[C@@H](NC(=O)[C@@H](CC(C)C)NC(=O)[C@H](CCC(=O)O)NC(=O)[C@@H]2C[C@@H](O)CN2C(=O)[C@H](Cc2ccc(Cl)cc2)NC(=O)[C@H](Cc2c[nH]c3ccccc23)NC(=O)[C@H](CC(=O)O)NC(C)=O)CSCc2cccc(n2)CSC[C@@H](C(N)=O)NC1=O` [GIP-350, Ac-Asp-Trp-Pcf-Hyp-Glu-leu-[Cys(2Lut)-Thp-Leu-Ile-Cys]-NH2] (Ac-DW[Phe(4-Cl)][Hyp]E[dL]C[Thp]LIC-NH2; linker 7-11 via Pyridine(2,6-diCH2)), the IC50 was over 1000 nM.

`CC[C@H](C)[C@@H]1NC(=O)[C@H](CC(C)C)NC(=O)C2(CCOCC2)NC(=O)[C@@H](NC(=O)[C@@H](CC(C)C)NC(=O)[C@H](CCC(=O)O)NC(=O)[C@@H]2C[C@@H](O)CN2C(=O)[C@H](Cc2ccc(Cl)cc2Cl)NC(=O)[C@H](Cc2c[nH]c3ccccc23)NC(=O)[C@H](CC(=O)O)NC(C)=O)CSCc2cccc(n2)CSC[C@@H](C(N)=O)NC1=O` [GIP-351, Ac-Asp-Trp-Egm-Hyp-Glu-leu-[Cys(2Lut)-Thp-Leu-Ile-Cys]-NH2] (Ac-DW[Phe(2,4-Cl2)][Hyp]E[dL]C[Thp]LIC-NH2; linker 7-11 via Pyridine(2,6-diCH2)): the IC50 is over 1000 nM.

Regarding `CC[C@H](C)[C@@H]1NC(=O)[C@H](CC(C)C)NC(=O)C2(CCOCC2)NC(=O)[C@@H](NC(=O)[C@@H](CC(C)C)NC(=O)[C@H](CCC(=O)O)NC(=O)[C@@H]2C[C@@H](O)CN2C(=O)[C@H](Cc2ccccc2)NC(=O)[C@H](Cc2c[nH]c3ccccc23)NC(=O)[C@H](CC(=O)O)NC(C)=O)CSCc2cccc(n2)CSC[C@@H](C(N)=O)NC1=O` [GIP-352, Ac-Asp-Trp-Phe-Hyp-Glu-leu-[Cys(2Lut)-Thp-Leu-Ile-Cys]-NH2] (Ac-DWF[Hyp]E[dL]C[Thp]LIC-NH2; linker 7-11 via Pyridine(2,6-diCH2)), the IC50 is over 1000 nM.

As for `CC(=O)N[C@@H](CC(=O)O)C(=O)N[C@@H](Cc1c[nH]c2ccccc12)C(=O)N[C@@H](Cc1c[nH]c2ccc(Cl)cc12)C(=O)N1C[C@H](O)C[C@H]1C(=O)N[C@@H](CCC(=O)O)C(=O)N[C@H](CC(C)C)C(=O)N[C@H]1CSCc2cccc(n2)CSC[C@@H](C(N)=O)NC(=O)[C@H](CCCNC(=N)N)NC(=O)[C@H](CC(C)C)NC(=O)C2(CCOCC2)NC1=O` [GIP-353, Ac-Asp-Trp-5Clw-Hyp-Glu-leu-[Cys(2Lut)-Thp-Leu-Arg-Cys]-NH2] (Ac-DW[Trp(5-Cl)][Hyp]E[dL]C[Thp]LRC-NH2; linker 7-11 via Pyridine(2,6-diCH2)), the IC50 was over 1000 nM.

As to `CC(=O)N[C@@H](CC(=O)O)C(=O)N[C@@H](Cc1c[nH]c2ccccc12)C(=O)N[C@@H](Cc1c[nH]c2ccc(Cl)cc12)C(=O)N1C[C@H](O)C[C@H]1C(=O)N[C@@H](CCC(=O)O)C(=O)N[C@H](CC(C)C)C(=O)N[C@H]1CSCc2cccc(n2)CSC[C@@H](C(N)=O)NC(=O)[C@H](CCC(=O)O)NC(=O)[C@H](CC(C)C)NC(=O)C2(CCOCC2)NC1=O` [GIP-354, Ac-Asp-Trp-5Clw-Hyp-Glu-leu-[Cys(2Lut)-Thp-Leu-Glu-Cys]-NH2] (Ac-DW[Trp(5-Cl)][Hyp]E[dL]C[Thp]LEC-NH2; linker 7-11 via Pyridine(2,6-diCH2)), the IC50 was over 1000 nM.

As for `CC(=O)N[C@@H](CC(=O)O)C(=O)N[C@@H](Cc1c[nH]c2ccccc12)C(=O)N[C@@H](Cc1c[nH]c2ccc(Cl)cc12)C(=O)N1C[C@H](O)C[C@H]1C(=O)N[C@@H](CCC(=O)O)C(=O)N[C@H](CC(C)C)C(=O)N[C@H]1CSCc2cccc(n2)CSC[C@@H](C(N)=O)NC(=O)[C@H](Cc2c[nH]c3ccccc23)NC(=O)[C@H](CC(C)C)NC(=O)C2(CCOCC2)NC1=O` [GIP-355, Ac-Asp-Trp-5Clw-Hyp-Glu-leu-[Cys(2Lut)-Thp-Leu-Trp-Cys]-NH2] (Ac-DW[Trp(5-Cl)][Hyp]E[dL]C[Thp]LWC-NH2; linker 7-11 via Pyridine(2,6-diCH2)), the IC50 was over 1000 nM.

Regarding `CC[C@H](C)[C@@H]1NC(=O)[C@H](CC(C)C)NC(=O)C2(CCOCC2)NC(=O)[C@@H](NC(=O)[C@@H](CC(C)C)NC(=O)[C@H](CCC(=O)O)NC(=O)[C@@H]2C[C@@H]3CCCC[C@@H]3N2C(=O)[C@H](Cc2ccc(Cl)c(Cl)c2)NC(=O)[C@H](Cc2ccc(Cl)c(Cl)c2)NC(=O)[C@H](CC(=O)O)NC(C)=O)CSCc2cccc(n2)CSC[C@@H](C(N)=O)NC1=O` [GIP-356, Ac-Asp-Eaa-Eaa-Oic-Glu-leu-[Cys(2Lut)-Thp-Leu-Ile-Cys]-NH2] (Ac-D[Phe(3,4-Cl2)][Phe(3,4-Cl2)][Oic]E[dL]C[Thp]LIC-NH2; linker 7-11 via Pyridine(2,6-diCH2)), the IC50 was over 1000 nM.

For `CC[C@H](C)[C@@H]1NC(=O)[C@H](CC(C)C)NC(=O)C2(CCOCC2)NC(=O)[C@@H](NC(=O)[C@@H](CC(C)C)NC(=O)[C@H](CCC(=O)O)NC(=O)CN(C)C(=O)[C@H](Cc2ccc(Cl)c(Cl)c2)NC(=O)[C@H](Cc2ccc(Cl)c(Cl)c2)NC(=O)[C@H](CC(=O)O)NC(C)=O)CSCc2cccc(n2)CSC[C@@H](C(N)=O)NC1=O` [GIP-357, Ac-Asp-Eaa-Eaa-Nmg-Glu-leu-[Cys(2Lut)-Thp-Leu-Ile-Cys]-NH2] (Ac-D[Phe(3,4-Cl2)][Phe(3,4-Cl2)][Sar]E[dL]C[Thp]LIC-NH2; linker 7-11 via Pyridine(2,6-diCH2)), the IC50 was over 1000 nM.

For the compound `CC[C@H](C)[C@@H]1NC(=O)[C@H](CC(C)C)NC(=O)C(C)(C)NC(=O)[C@@H](NC(=O)[C@@H](CC(C)C)NC(=O)[C@H](CCC(=O)O)NC(=O)[C@@H]2CCCN2C(=O)[C@H](Cc2c[nH]c3ccc(Cl)cc23)NC(=O)[C@H](Cc2c[nH]c3ccccc23)NC(=O)[C@H](CC(=O)O)NC(=O)CCC(=O)NCCCOCCOCCOCCCNC(=O)CN2CCN(CC(=O)O)CCN(CC(=O)O)CCN(CC(=O)O)CC2)CNC(=O)c2cccc(c2)CSCCNC1=O` [GIP-358, DOTA-Ttds-Asp-Trp-5Clw-Pro-Glu-leu-[Dap(3MeBz)-Aib-Leu-Ile-AET]] ({X3-Suc}-DW[Trp(5-Cl)]PE[dL][Dap][Aib]LI[X23]; lactam 7-C), the IC50 is under 10 nM.
